Laboratory results published in PubChem BioAssay (NCI).
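Step 1: Grow cells in 96-well plates. Step 2: Expose to compound for 48 hours at 5 concentrations. Step 3: Interpolate endpoints linearly; if unreached, use highest concentration. TGI: total growth inhibition.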

Legend:
Assay in all cases: DTP human tumour cell line panel, 48 h
[1] = system: SF-295 CNS
[2] = system: RPMI-8226 leukemia
[3] = system: MDA-MB-435
[4] = system: OVCAR-4 ovarian
[5] = system: HCT-116 colon
[6] = system: SK-MEL-2 melanoma
[7] = system: NCI-H226 lung
[8] = system: SNB-75 CNS
[9] = system: MCF7 breast
[10] = system: MOLT-4 leukemia
[11] = system: HOP-62 NSCLC
[12] = system: UACC-257 melanoma
[13] = system: EKVX NSCLC
[14] = system: NCI-H522 lung
[15] = system: NCI-H460 lung
[16] = system: BT-549 breast
[17] = system: A498 renal
[18] = system: SF-268 CNS
[19] = system: SK-MEL-5 melanoma
[20] = system: LOX IMVI melanoma
[21] = system: HT29 colon
[22] = system: COLO 205 colon
[23] = system: MDA-N
[24] = system: T-47D breast
[25] = system: SR leukemia
[26] = system: DU-145 prostate
[27] = system: OVCAR-5 ovarian
[28] = system: HS 578T breast
[29] = system: SW-620 colon
[30] = system: 786-0 renal
[31] = system: PC-3 prostate
[32] = system: HCT-15 colon
[33] = system: OVCAR-8 ovarian
[34] = system: M14 melanoma
[35] = system: SK-OV-3 ovarian
[36] = system: SNB-19 CNS
[37] = system: MALME-3M melanoma
[38] = system: HOP-92 NSCLC
[39] = system: ACHN renal
[40] = system: MDA-MB-231 breast
[41] = system: UACC-62 melanoma
[42] = system: KM12 colon
[43] = system: K-562 leukemia
[44] = system: OVCAR-3 ovarian
[45] = system: U251 CNS
[46] = system: HL-60(TB) leukemia
[47] = system: CAKI-1 renal
[48] = system: IGROV1 ovarian
[49] = system: SN12C renal
[50] = system: RXF 393 renal
[51] = system: SK-MEL-28 melanoma
[52] = system: A549 NSCLC
[53] = system: UO-31 renal
[54] = system: NCI/ADR-RES ovarian
[55] = system: SF-539 CNS
[56] = system: TK-10 renal
[57] = system: CCRF-CEM leukemia
[58] = system: HCC-2998 colon
[59] = system: NCI-H23 lung

SMILES: Cc1cc(Cc2c(C)c(C)c(Cc3cc(C)cc(C(C)(C)C)c3O)c(C)c2C)c(O)c(C(C)(C)C)c1
- TGI [1]: > 100 µM
- TGI [2]: > 100 µM
- TGI [3]: > 100 µM
- TGI [4]: > 100 µM
- TGI [5]: > 100 µM
- TGI [6]: > 100 µM
- TGI [7]: > 100 µM
- TGI [8]: > 100 µM
- TGI [9]: > 100 µM
- TGI [10]: > 100 µM
- TGI [11]: > 100 µM
- TGI [12]: > 100 µM
- TGI [13]: > 100 µM
- TGI [14]: > 100 µM
- TGI [15]: > 100 µM
- TGI [16]: > 100 µM
- TGI [17]: > 100 µM
- TGI [18]: > 100 µM
- TGI [19]: > 100 µM
- TGI [20]: > 100 µM
- TGI [21]: > 100 µM
- TGI [22]: > 100 µM
- TGI [23]: > 100 µM
- TGI [24]: > 100 µM
- TGI [25]: > 100 µM
- TGI [26]: > 100 µM
- TGI [27]: > 100 µM
- TGI [28]: > 100 µM
- TGI [29]: > 100 µM
- TGI [30]: > 100 µM
- TGI [31]: > 100 µM
- TGI [32]: > 100 µM
- TGI [33]: > 100 µM
- TGI [34]: > 100 µM
- TGI [35]: > 100 µM
- TGI [36]: > 100 µM
- TGI [37]: > 100 µM
- TGI [38]: > 100 µM
- TGI [39]: > 100 µM
- TGI [40]: > 100 µM
- TGI [41]: > 100 µM
- TGI [42]: > 100 µM
- TGI [43]: > 100 µM
- TGI [44]: > 100 µM
- TGI [45]: > 100 µM
- TGI [46]: 83.6 µM
- TGI [47]: > 100 µM
- TGI [48]: > 100 µM
- TGI [49]: > 100 µM
- TGI [50]: > 100 µM
- TGI [51]: > 100 µM
- TGI [52]: > 100 µM
- TGI [53]: > 100 µM
- TGI [54]: > 100 µM
- TGI [55]: > 100 µM
- TGI [56]: > 100 µM

SMILES: COC(=O)C12C3C4C1C1C2C3C41C(=O)NC(C)(C)CC(=O)O (stereo not drawn)
- TGI [1]: > 100 µM
- TGI [2]: > 100 µM
- TGI [3]: > 100 µM
- TGI [4]: > 100 µM
- TGI [5]: > 100 µM
- TGI [6]: > 100 µM
- TGI [7]: > 100 µM
- TGI [8]: > 100 µM
- TGI [9]: > 100 µM
- TGI [10]: > 100 µM
- TGI [11]: > 100 µM
- TGI [12]: > 100 µM
- TGI [13]: > 100 µM
- TGI [14]: > 100 µM
- TGI [15]: 61 µM
- TGI [16]: > 100 µM
- TGI [17]: > 100 µM
- TGI [18]: > 100 µM
- TGI [19]: > 100 µM
- TGI [20]: > 100 µM
- TGI [21]: > 100 µM
- TGI [57]: > 100 µM
- TGI [22]: > 100 µM
- TGI [23]: > 100 µM
- TGI [24]: > 100 µM
- TGI [25]: > 100 µM
- TGI [26]: > 100 µM
- TGI [27]: > 100 µM
- TGI [28]: > 100 µM
- TGI [29]: > 100 µM
- TGI [30]: > 100 µM
- TGI [31]: > 100 µM
- TGI [32]: > 100 µM
- TGI [33]: > 100 µM
- TGI [34]: > 100 µM
- TGI [36]: > 100 µM
- TGI [37]: > 100 µM
- TGI [38]: > 100 µM
- TGI [58]: > 100 µM
- TGI [39]: > 100 µM
- TGI [40]: > 100 µM
- TGI [41]: > 100 µM
- TGI [42]: > 100 µM
- TGI [44]: > 100 µM
- TGI [45]: > 100 µM
- TGI [46]: > 100 µM
- TGI [47]: > 100 µM
- TGI [48]: > 100 µM
- TGI [59]: > 100 µM
- TGI [49]: > 100 µM
- TGI [50]: > 100 µM
- TGI [51]: > 100 µM
- TGI [52]: > 100 µM
- TGI [53]: > 100 µM
- TGI [54]: > 100 µM
- TGI [55]: > 100 µM
- TGI [56]: > 100 µM
